One assay deals with E. coli W 3630 RGN 823. In words: microbe, parasite or virus in culture. In kind it is cell-based. The settings on record: Escherichia coli, W3630RGN823, 20 h.
For the next assay, the system named is Pro. mirabilis GN 79. In words: antibacterial spectrum, MIC (Table 2). In kind it is cell-based. The note with it: Proteus mirabilis, GN79, nutrient agar, 37° C., 20 hours.
Assay [1] deals with Escherichia coli No. 29. In words: therapeutic treatment of bacterial infection in mice, ED50. The settings on record: male ICR mice; E. coli No. 29 intraperitoneally, 2.0×10^7 cells per mouse; subcutaneous injection 30 minutes after inoculation. In kind it is in vivo. The protocol: Thirty minutes after the inoculation, the mice were each treated by subcutaneous injection of 0.2 ml of a solution of the test compound in physiological saline. In this way, the ED50 value of the test compounds was determined. Cefoxitin and the 6059-S Compound (di-Na salt) were also tested in the same manner as above, for the comparison purpose.

For the next assay, the system named is Citro freundii GN 346/16. In words: antibacterial spectrum, MIC (Table 2). Type of assay: cell-based. The settings on record: nutrient agar, 37° C., 20 hours.
For another assay, the system named is Pro. morganii 1510. In words: antibacterial spectrum, MIC (Table 2). Type of assay: cell-based. The note with it: Morganella morganii, nutrient agar, 37° C., 20 hours.
In another assay the test system is B. subtilis ATCC 6633. In words: antibacterial spectrum, MIC (Table 2). The settings on record: Bacillus subtilis, ATCC6633, nutrient agar, 37° C., 20 hours. Type of assay: cell-based.
For a further assay, the system named is Sta. aureus Smith (I). In words: antibacterial spectrum, MIC (Table 2). In kind it is cell-based. The settings on record: Staphylococcus aureus, nutrient agar, 37° C., 20 hours.
In a further assay the test system is Ps. cepacia M-0527. In words: antibacterial spectrum, MIC (Table 2). Type of assay: cell-based. The note with it: Burkholderia cepacia, M0527, nutrient agar, 37° C., 20 hours.
A further assay concerns E. coli ML 1410. In words: antibacterial spectrum, MIC (Table 2). In kind it is cell-based. The note with it: Escherichia coli, ML1410, nutrient agar, 37° C., 20 hours.
The next assay deals with Sal. typhimurium LT-2. In words: antibacterial spectrum, MIC (Table 2). In kind it is cell-based. The settings on record: Salmonella enterica, nutrient agar, 37° C., 20 hours.
Another assay concerns Sta. aureus 209P JC-1. In words: antibacterial spectrum, MIC (Table 2). In kind it is cell-based. The settings on record: Staphylococcus aureus, nutrient agar, 37° C., 20 hours.
For a further assay, the system named is Kleb. pneumoniae GN 69. In words: antibacterial spectrum, MIC (Table 2). In kind it is cell-based. The settings on record: Klebsiella pneumoniae, GN69, nutrient agar, 37° C., 20 hours.
For a further assay, the system named is E. coli W 3630 RGN 238. In words: microbe, parasite or virus in culture. The note with it: Escherichia coli, W3630RGN238, 20 h. In kind it is cell-based.
The subject of another assay is Ps. aeruginosa MB-3829. In words: antibacterial spectrum, MIC (Table 2). In kind it is cell-based. The settings on record: Pseudomonas aeruginosa.
The test system of another assay is Pro. vulgaris GN 76. In words: antibacterial spectrum, MIC (Table 2). The settings on record: Proteus vulgaris, GN76, nutrient agar, 37° C., 20 hours. Type of assay: cell-based.
In assay [2] the test system is Shigella dysenteriae Shigae. In words: microbe, parasite or virus in culture. In kind it is cell-based. The note with it: 20 h.
The subject of assay [3] is Escherichia coli No. 29. In words: Minimum Inhibitory Concentration "in vitro" (Table 1). In kind it is cell-based.
The subject of another assay is Escherichia coli GN. The description is as above. In kind it is cell-based.

Values after ≈ are worked out from the molar mass of the structure shown. Counter-ions that a name gives are not always drawn. Like-named read-outs stand apart in the source and are kept apart here.

With `CO[C@@]1(NC(=O)C(C(=O)O)c2ccc(O)cc2)C(=O)N2C(C(=O)O)=C(CSc3nnnn3C)CO[C@@H]21` (stereo partly drawn) [6059-S Compound, 7β-(α-p-hydroxyphenyl-α-carboxyacetoamido)-7α-methoxy-3-[(1-methyl-1H-tetrazole-5-yl)thiomethyl]-1-oxadethia-3-cephem-4-carboxylic acid, reference compound], the MIC in the assay with E. coli W 3630 RGN 823 stood at 0.05 µg/mL (≈ 0.0961 µM); in the assay on Pro. mirabilis GN 79, 0.39 µg/mL (≈ 0.749 µM); against Citro freundii GN 346/16 it was 0.1 µg/mL (≈ 0.192 µM); against Pro. morganii 1510, 0.39 µg/mL (≈ 0.749 µM); in the assay with B. subtilis ATCC 6633, 25 µg/mL (≈ 48 µM); in the assay on Sta. aureus Smith (I), 6.25 µg/mL (≈ 12 µM). In addition, the MIC against Ps. cepacia M-0527 was determined as 6.25 µg/mL (≈ 12 µM); in the assay with E. coli ML 1410, 0.1 µg/mL (≈ 0.192 µM); with Sal. typhimurium LT-2, 0.2 µg/mL (≈ 0.384 µM); in the assay on Sta. aureus 209P JC-1 it was 6.25 µg/mL (≈ 12 µM); in the assay on Kleb. pneumoniae GN 69 it was 0.39 µg/mL (≈ 0.749 µM); in the assay on E. coli W 3630 RGN 238, 0.2 µg/mL (≈ 0.384 µM). Also, the MIC against Ps. aeruginosa MB-3829 (MB3829, 20 h) turned out to be 3.13 µg/mL (≈ 6.01 µM); in the assay on Pro. vulgaris GN 76, 0.39 µg/mL (≈ 0.749 µM); in assay [2] it was 0.1 µg/mL (≈ 0.192 µM). In addition, the ED50 value in the assay on Escherichia coli No. 29 [1] is reported as 0.16 mg/mouse.

For `CO[C@@]1(NC(=O)Cc2cccs2)C(=O)N2C(C(=O)O)=C(COC(N)=O)CS[C@@H]21` [Cefoxitin, reference compound], the ED50 value in the assay with Escherichia coli No. 29 [1] is 0.50 mg/mouse.

Consider `CO[C@@]1(NC(=O)CSC[C@@H](N)C(=O)O)C(=O)N2C(C(=O)O)=C(CSc3nnnn3C)CO[C@@H]21` [Example 1, 7β-[(2D-2-amino-2-carboxy)ethylthioacetoamido]-7α-methoxy-3-[(1-methyl-1H-tetrazol-5-yl)thiomethyl]-1-oxadethia-3-cephem-4-carboxylic acid sodium salt], for which the MIC in the assay on E. coli W 3630 RGN 823 is at most 0.025 µg/mL; with Pro. mirabilis GN 79, 0.2 µg/mL; in the assay with Citro freundii GN 346/16, 0.78 µg/mL; in the assay with Pro. morganii 1510 it was 0.78 µg/mL; in the assay on B. subtilis ATCC 6633, 1.56 µg/mL; against Sta. aureus Smith (I), 1.56 µg/mL. Further, the MIC against Escherichia coli No. 29 [3] is 0.39 µg/mL; against Ps. cepacia M-0527 it was 3.13 µg/mL; against E. coli ML 1410, 0.39 µg/mL; against Escherichia coli GN, 0.39 µg/mL; against Sal. typhimurium LT-2, 0.39 µg/mL; in the assay on Sta. aureus 209P JC-1, 3.13 µg/mL. The MIC is 0.78 µg/mL against Kleb. pneumoniae GN 69; 0.39 µg/mL in the assay on E. coli W 3630 RGN 238; 12.5 µg/mL in the assay on Ps. aeruginosa MB-3829 (MB3829, Ps. aeruginosa MB-3829, nutrient agar, 37° C., 20 hours, read-out: MIC); 0.39 µg/mL against Pro. vulgaris GN 76; 0.2 µg/mL in assay [2]. Also, the ED50 value in the assay on Escherichia coli No. 29 [1] stood at 0.03 mg/mouse.

With `Cn1nnnc1SCC1=C(C(=O)O)N2C(=O)[C@@H](NC(=O)CSC[C@@H](N)C(=O)O)[C@H]2OC1` [Example 2, 7β-[(2D-2-Amino-2-carboxy)ethylthioacetoamido]-3-[(1-methyl-1H-tetrazol-5-yl)thiomethyl]-1-oxadethia-3-cephem-4-carboxylic acid sodium salt], in the assay with Escherichia coli No. 29 [1], the ED50 value is reported as 0.05 mg/mouse. Also, the MIC against Escherichia coli No. 29 [3] turned out to be 0.39 µg/mL; against Escherichia coli GN it was 3.13 µg/mL.

In the case of `CO[C@@]1(NC(=O)CSC[C@@H](N)C(=O)O)C(=O)N2C(C(=O)[O-])=C(C[n+]3ccc(C(N)=O)cc3)CO[C@@H]21` [Example 3, 7β-[(2D-2-Amino-2-carboxy)ethylthioacetoamido]-7α-methoxy-3-[(4-carbamoylpyridinium)methyl]-1-oxadethia-3-cephem-4-carboxylic acid], the MIC with Escherichia coli No. 29 [3] and in the assay on Escherichia coli GN was 0.78 µg/mL (≈ 1.53 µM) in each case.

The values above are taken from US4325951A, “1-Oxadethiacephalosporin derivatives and antibacterial use thereof” (Meiji Seika Kaisha, Ltd., priority 1979, dated 1982).
